Measured values: patent US9040725B2, “Benzocycloheptane and benzoxepine derivatives” (Janssen Pharmaceutica NV, priority 2008, dated 2015)
Where a name gives a salt, the structure may show the parent alone. Read-outs that look alike come from different tables or passages of the source.

Columns and labels:
GHS1A-receptor = biological target: T1, GHS1A-receptor (Homo sapiens, UniProt Q92847); test: Ghrelin-agonism in HEK293 cells (intracellular calcium, FLIPR); assay type: cell-based; conditions: calcium fluorescence (fluo-4 or Kit-3), EC50 in M
T1 construct: expressed in transfected cells; host or cells: HEK293
Method: One day before the experiment, HEK293 cells, permanently transfected with the gene sequence for expression of the GHS1A-receptor, were seeded in poly-D-Lysine coated 96-well plates with clear bottom, and allowed to grow to […] of confluence on the next day.
Then, cells were incubated with the calcium-sensitive intracellular fluorescent probe fluo-4 or Kit-3 for 1 h at 37° C. Fluorescence representing free intracellular calcium in the cells was measured in a FLIPR-system (excitation at 488 nm, emission>520 nm). Test compounds were added to each well at the desired concentration and the fluorescence signal was simultaneously recorded in all wells. Release of intracellular calcium triggered by activation of the receptors upon addition of the test compound was measured as the fluorescence emitted from the complex of calcium and the fluorescent probe. The drug effect on fluorescence intensity was expressed relative to the maximal fluorescence intensity measured in cells exposed to the calcium-ionophore ionomycin.

NMRI-mice = test: Acceleration of gastric emptying and small intestinal propulsion in NMRI-mice; assay type: in vivo; conditions: Mus musculus, sc
Method: Male NMRI-mice weighing around 25 gram were fasted for 20 h and had free access to drinking water. Test compounds were administered to the animals by subcutaneous route 30 min before they were given a test meal by oral gavage. The test meal consisted of 0.3 ml of a chocolate nutridrink solution (1.0 kcal/ml) containing phenol red marker (5 mg/ml). Fifteen min after administration of the meal, the mice were sacrificed by CO2 gas inhalation. The phenol red content remaining in the stomach (extracted from the stomach with NaOH) was determined at 557 nm in a spectrophotometer and expressed as extinction units. Small intestinal propulsion was determined as the distance traveled by the phenol red marker through the intestine and expressed as a percentage of total small intestinal length (from the pylorus to the ileo-cecal junction).
The lowest dose that was active for each parameter was noted as the lowest active dose (LAD). Table 12 discloses LAD values.

[1] = HEK293 cells permanently transfected with GHS1A-receptor, read-out: pEC50 (converted)
[2] = lowest active dose, subcutaneous, 30 min before phenol red test meal, active when >60% of animals had phenol red front beyond 85% of small intestinal length, read-out: LAD (mg/kg) Small intestinal propulsion
[3] = lowest active dose, subcutaneous, 30 min before phenol red test meal, stomach content 15 min after meal, active when >60% of animals below 0.9 extinction units, read-out: LAD (mg/kg) Gastric emptying

T1 sequence (Q92847 whole entry): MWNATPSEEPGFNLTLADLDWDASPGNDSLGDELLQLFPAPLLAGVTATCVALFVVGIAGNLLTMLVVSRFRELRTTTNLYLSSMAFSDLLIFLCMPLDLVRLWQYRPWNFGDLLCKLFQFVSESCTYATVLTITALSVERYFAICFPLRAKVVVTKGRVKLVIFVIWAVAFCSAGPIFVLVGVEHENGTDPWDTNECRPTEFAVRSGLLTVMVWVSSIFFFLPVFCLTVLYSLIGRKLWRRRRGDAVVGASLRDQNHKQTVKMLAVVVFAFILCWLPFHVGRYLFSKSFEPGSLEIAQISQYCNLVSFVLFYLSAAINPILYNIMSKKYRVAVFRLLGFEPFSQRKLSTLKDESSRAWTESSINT

Structure (SMILES)	EC50 (GHS1A-receptor; [1]) [nM]	minimal effective dose (NMRI-mice; [2]) [mg/kg]	minimal effective dose (NMRI-mice; [3]) [mg/kg]	also measured
CN(C)CCCC1(O)c2ccccc2CCCC1c1ccccc1 (single isomer, unassigned) (as salt: oxalate) [Compound 105]				melting point: 178 °C
CN(C)CCCC1(O)c2ccccc2CCCC1c1ccccc1 (single isomer, unassigned) (as salt: oxalate) [Compound 104]				melting point: 210 °C
Cc1ccc(C2CCCc3ccccc3C2(O)CCCN(C)C)cc1 (racemic) (as salt: oxalate) [Compound 29]				melting point: 161.8 °C
CN(C)CCCC1(O)c2ccccc2CCCC1c1ccc(Cl)cc1 (single isomer, unassigned) (as salt: oxalate) [Compound 3]				melting point: 168.7 °C
CNCCCC1(O)c2ccccc2CCCC1c1ccc(OC)cc1 (racemic) (as salt: oxalate) [Compound 65]				melting point: 134.3 °C
COCCN(C)CCCC1(O)c2ccccc2CCCC1c1ccc(OC)cc1 (racemic) (as salt: oxalate) [Compound 70]				melting point: 132.2 °C
Cc1ccc(C2CCCc3ccccc3C2(O)CCCN2CCN(C)CC2)cc1 (racemic) (as salt: oxalate) [Compound 33]				melting point: 219 °C
OC1(CCCN2CCCC2)c2ccccc2CCCC1c1ccc(Cl)cc1 (racemic) (as salt: oxalate) [Compound 48]				melting point: 236.2 °C
COCCN(C)CCCC1(O)c2ccccc2CCCC1c1ccc(C)cc1 (racemic) (as salt: oxalate) [Compound 30]				melting point: 144.9 °C
CNCCCC1(O)c2ccccc2CCCC1c1ccc(C)cc1 (racemic) (as salt: oxalate) [Compound 27]				melting point: 235.8 °C
CCN(CC)CCCC1(O)c2ccccc2CCCC1c1ccc(OC)c(OC)c1 (racemic) [Compound 78]	398	> 10	> 10	
CCN(CC)CCCC1(O)c2ccccc2CCCC1c1ccc(OC)cc1 (racemic) (as salt: oxalate) [Compound 67]				melting point: 153 °C
CCN(CC)CCCC1(O)c2ccccc2CCCC1c1ccc(F)cc1F (racemic) (as salt: oxalate) [Compound 57]				melting point: 160.3 °C
COc1cccc([C@H]2CCCc3ccccc3[C@]2(O)CCCN(C)C)c1 (racemic) [Compound 14, (±)cis-5-(3-Dimethylamino-propyl)-6-(3-methoxy-phenyl)-6,7,8,9-tetrahydro-5H-benzocyclohepten-5-ol oxalate]				EC50 (GHS1A-receptor; pEC50, HEK293 cells permanently transfected with GHS1A-receptor): 12.6 nM; minimal effective dose (NMRI-mice; read-out: LAD (mg/kg) Gastric emptying): 10 mg/kg; minimal effective dose (NMRI-mice; read-out: LAD (mg/kg) Small intestinal propulsion): > 10 mg/kg
OC1(CCCN2CCCCC2)c2ccccc2CCCC1c1ccc(F)cc1F (racemic) (as salt: oxalate) [Compound 59]				melting point: 211.5 °C
COCCN(C)CCCC1(O)c2ccccc2CCCC1c1cccc(Cl)c1 (racemic) [Compound 42]	50.1	> 10	> 10	
Cc1ccc([C@H]2CCCc3ccccc3[C@]2(O)CCCN(C)C)cn1 (racemic) [Compound 16, (±)cis-5-(3-Dimethylamino-propyl)-6-(6-methyl-pyridin-3-yl)-6,7,8,9-tetrahydro-5H-benzocyclohepten-5-ol hydrochloride]	251	> 10	10	
CCN(CC)CCCC1(O)c2ccccc2CCCC1c1ccc(Cl)c(OC)c1 (racemic) [Compound 74]	5.01	> 40	> 40	
COc1ccc(C2CCCc3ccccc3C2(O)CCCN(C)C)cc1 (racemic) [Compound 66]	251	10	> 10	
CCN(CC)CCCC1(O)c2ccccc2CCCC1c1ccc(Cl)cc1 (racemic) [Compound 46]	200	10	10	
OC1(CCCN2CCCC2)c2ccccc2CCCC1c1ccccc1 (racemic) [Compound 21]	79.4	> 10	> 10	
CN(C)CCCC1(O)c2ccccc2OCCC1c1ccc(F)c(F)c1 (racemic) [Compound 95]	50.1	> 10	> 10	
CCN(CC)CCCC1(O)c2ccccc2CCCC1c1ccc(OC)cc1 (racemic) [Compound 67]	158	> 10	> 10	

Structure (SMILES)	EC50 (GHS1A-receptor; [1]) [nM]	minimal effective dose (NMRI-mice; [2]) [mg/kg]	minimal effective dose (NMRI-mice; [3]) [mg/kg]	also measured
Cc1ccc(C2CCOc3ccccc3C2(O)CCCN(C)C)cc1 (racemic) [Compound 92]	63.1	> 10	> 10	
CN(C)CCCC1(O)c2ccccc2CCCC1c1cncc(Cl)c1 (racemic) [Compound 81]	50.1	> 10	> 10	
CN(C)CCCC1(O)c2ccccc2CCCC1c1ccccc1 (racemic) [Compound 106]	63.1	10	10	
COc1ccccc1C1CCOc2ccccc2C1(O)CCCN(C)C (racemic) [Compound 96]	2000	> 10	> 10	
CN(C)CCCC1(O)c2ccccc2OCCC1c1ccc(Cl)cc1 (racemic) [Compound 94]	31.6	2.5	10	
Cc1ccc(C2CCOc3ccccc3C2(O)CCCN(C)C)cn1 (racemic) [Compound 99]	794	> 10	10	
OC1(CCCN2CCCC2)c2ccccc2CCCC1c1ccc(Cl)cc1 (racemic) [Compound 48]	31.6	> 10	> 10	
CNCCCC1(O)c2ccccc2CCCC1c1ccc(C)cc1 (racemic) [Compound 27]	79.4	> 10	> 10	
COc1cc(C2CCCc3ccccc3C2(O)CCCN(C)C)ccc1Cl (racemic) [Compound 72]	10	> 10	> 10	
COCCN(C)CCCC1(O)c2ccccc2CCCC1c1ccc(F)cc1 (racemic) [Compound 54]	63.1	> 40	> 40	
CN(C)CCCC1(O)c2ccccc2CCCC1c1ccccc1 (single isomer, unassigned) [Compound 105]	15.8	> 10	10	
CN(C)CCCC1(O)c2ccccc2CCCC1c1ccc(F)cc1F (racemic) [Compound 56]	25.1	> 10	10	
COCCN(C)CCCC1(O)c2ccccc2CCCC1c1ccc(F)cc1F (racemic) [Compound 58]	126	> 10	> 10	
CNCCCC1(O)c2ccccc2CCCC1c1ccc(Cl)cc1 (racemic) [Compound 43]	126	> 10	> 10	
COc1cncc(C2CCCc3ccccc3C2(O)CCCN(C)C)c1 (racemic) [Compound 83]	631	> 10	> 10	
CNCCCC1(O)c2ccccc2CCCC1c1cccc(C)c1 (racemic) [Compound 22]	39.8	> 10	> 10	
COCCN(C)CCCC1(O)c2ccccc2CCCC1c1ccc(C)cc1 (racemic) [Compound 30]	79.4	> 10	10	
CN(C)CCCC1(O)c2ccccc2CCCC1c1ccc(O)cc1 (racemic) [Compound 35]	2000	> 10	> 10	
COCCN(C)CCC[C@@]1(O)c2ccccc2CCC[C@@H]1c1ccc(Cl)cc1 (relative stereo) [Compound 13]	251	> 10	10	
CN(C)CCCC1(O)c2ccccc2CCCC1c1ccc2c(c1)OCO2 (racemic) [Compound 88]	63.1	> 10	> 10	
CCN(CC)CCCC1(O)c2ccccc2OCCC1c1ccc(C)cc1 (racemic) [Compound 93]	63.1	10	> 10	
CCN(CC)CCCC1(O)c2ccccc2CCCC1c1ccc(F)cc1 (racemic) [Compound 53]	20	> 10	> 10	
